# Source: US20220281848A1, “PYRAZOLE-SUBSTITUTED PYRROLIDINONES AS HERBICIDES” (FMC Corporation, priority 2019, published 2022)
# Key:
# Assay type in all cases: in vivo
# corn (Zea mays, ZEAMX) = experiment: Test A pre-emergence, corn; conditions: after 13 d
# Outline: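 Values are percent plant damage 13 d after a pre-emergence spray (15.625, 62.5 or 250 g/ha; acetone/water with 0.5% Tween 20) applied to pots one day post-sowing, under glasshouse conditions of 24/16° C. and twice-daily watering.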
# [1] = system: velvetleaf (Abutilon theophrasti, ABUTH); experiment: Test A post-emergence, velvetleaf; conditions: after 13 d
# Outline: (§1)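 Post-emergence spray at 8 d after sowing; doses 15.625, 62.5 or 250 g/ha in acetone/water 50:50 + 0.5% Tween 20. Glasshouse 24/16 °C, 14 h light, 65% RH, watered twice daily. Visual damage rating 0–100 at 13 d.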
# wheat = experiment: Test D pre-emergence, wheat seed treated with a herbicide safener; conditions: 100=total damage, 0=no damage
# Outline: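 Damage was rated visually from 0 (none) to 100 (total), at 20 DAA for pre-emergence and 15 d for post-emergence. Plants grew from safener-treated seed in a glasshouse at 24/18° C. or 20/16° C. day/night, 65% humidity, watered twice daily.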
# [2] = system: ivy-leaved morning glory (Ipomoea hederacea, IPOHE); experiment: Test A post-emergence, ivy-leaved morning glory; conditions: after 13 d
# Outline: as §1
# plants = experiment: Test D post-emergence, other plants of Tables D2 and D4; conditions: "Cereals" Postemergent, evaluated after 15 d
# Outline: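 Seeds treated with herbicide safener; sown in soil; glasshouse, 16 h light, 65% humidity. Sprayed day 1 (pre) or ~day 12 (post). Spray in 0.2% v/v adjuvant. Scored 0–100 damage: 20 DAA pre, 15 d post.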
compound,measurement,setting,value
COc1c(F)cccc1NC(=O)C1C(=O)N(C)CC1c1cc(C(F)(F)F)n(C)n1 (racemic) [Compound 18],damage to plant (100=total damage; 0=no damage) ZEAMX,"corn (Zea mays, ZEAMX); Pre-Emergence at 15.625 g/ha",30
same,damage to plant (100=total damage; 0=no damage) ZEAMX,"corn (Zea mays, ZEAMX); Pre-Emergence at 62.5 g/ha",60
same,damage to plant (100=total damage; 0=no damage) ZEAMX,"corn (Zea mays, ZEAMX); Pre-Emergence at 250 g/ha",80
same,damage to plant (100=total damage; 0=no damage) ABUTH,[1]; Post-Emergence at 15.625 g/ha,0
same,damage to plant (100=total damage; 0=no damage) ABUTH,[1]; Post-Emergence at 62.5 g/ha,0
same,damage to plant (100=total damage; 0=no damage) ABUTH,[1]; Post-Emergence at 250 g/ha,0
same,"damage to plant, TRZAW","wheat; rate 15, 20 DAA",0
same,"damage to plant, TRZAW","wheat; rate 30, 20 DAA",0
same,"damage to plant, TRZAW","wheat; rate 60, 20 DAA",0
same,"damage to plant, TRZAW","wheat; rate 130, 20 DAA",0
same,"damage to plant, TRZAW","wheat; rate 250, 20 DAA",20
same,"damage to plant, TRZAW","wheat; rate 500, 20 DAA",30
same,damage to plant (100=total damage; 0=no damage) IPOHE,[2]; Post-Emergence at 15.625 g/ha,10
same,damage to plant (100=total damage; 0=no damage) IPOHE,[2]; Post-Emergence at 62.5 g/ha,20
same,damage to plant (100=total damage; 0=no damage) IPOHE,[2]; Post-Emergence at 250 g/ha,50
same,ALOMY damage rating (100=total damage to plant; 0=no damage to plant),plants; Rates 130,10
same,ALOMY damage rating (100=total damage to plant; 0=no damage to plant),plants; Rates 250,30
same,ALOMY damage rating (100=total damage to plant; 0=no damage to plant),plants; Rates 500,40
same,AVEFA damage rating (100=total damage to plant; 0=no damage to plant),plants; Rates 130,0
same,AVEFA damage rating (100=total damage to plant; 0=no damage to plant),plants; Rates 250,20
same,AVEFA damage rating (100=total damage to plant; 0=no damage to plant),plants; Rates 500,40
same,BEAVA damage rating (100=total damage to plant; 0=no damage to plant),plants; Rates 130,0
same,BEAVA damage rating (100=total damage to plant; 0=no damage to plant),plants; Rates 250,0
same,BEAVA damage rating (100=total damage to plant; 0=no damage to plant),plants; Rates 500,0
same,BROTE damage rating (100=total damage to plant; 0=no damage to plant),plants; Rates 130,0
same,BROTE damage rating (100=total damage to plant; 0=no damage to plant),plants; Rates 250,0
same,BROTE damage rating (100=total damage to plant; 0=no damage to plant),plants; Rates 500,0
same,BRSNN damage rating (100=total damage to plant; 0=no damage to plant),plants; Rates 130,10
same,BRSNN damage rating (100=total damage to plant; 0=no damage to plant),plants; Rates 250,10
same,BRSNN damage rating (100=total damage to plant; 0=no damage to plant),plants; Rates 500,20
same,CHEAL damage rating (100=total damage to plant; 0=no damage to plant),plants; Rates 130,0
same,CHEAL damage rating (100=total damage to plant; 0=no damage to plant),plants; Rates 250,0
same,CHEAL damage rating (100=total damage to plant; 0=no damage to plant),plants; Rates 500,20
same,GALAP damage rating (100=total damage to plant; 0=no damage to plant),plants; Rates 130,0
same,GALAP damage rating (100=total damage to plant; 0=no damage to plant),plants; Rates 250,0
same,GALAP damage rating (100=total damage to plant; 0=no damage to plant),plants; Rates 500,40
same,HORVW damage rating (100=total damage to plant; 0=no damage to plant),plants; Rates 130,0
same,HORVW damage rating (100=total damage to plant; 0=no damage to plant),plants; Rates 250,30
same,HORVW damage rating (100=total damage to plant; 0=no damage to plant),plants; Rates 500,50
same,KCHSC damage rating (100=total damage to plant; 0=no damage to plant),plants; Rates 130,0
same,KCHSC damage rating (100=total damage to plant; 0=no damage to plant),plants; Rates 250,0
same,KCHSC damage rating (100=total damage to plant; 0=no damage to plant),plants; Rates 500,0
same,LOLPE damage rating (100=total damage to plant; 0=no damage to plant),plants; Rates 130,0
same,LOLPE damage rating (100=total damage to plant; 0=no damage to plant),plants; Rates 250,0
same,LOLPE damage rating (100=total damage to plant; 0=no damage to plant),plants; Rates 500,10
same,POAAN damage rating (100=total damage to plant; 0=no damage to plant),plants; Rates 130,0
same,POAAN damage rating (100=total damage to plant; 0=no damage to plant),plants; Rates 250,50
same,POAAN damage rating (100=total damage to plant; 0=no damage to plant),plants; Rates 500,70
same,POLCO damage rating (100=total damage to plant; 0=no damage to plant),plants; Rates 130,0
same,POLCO damage rating (100=total damage to plant; 0=no damage to plant),plants; Rates 250,0
same,POLCO damage rating (100=total damage to plant; 0=no damage to plant),plants; Rates 500,0
